Biological target: human 11β-HSD1 microsome fraction (Homo sapiens, UniProt P28845)
Experiment: Enzymatic 11beta-HSD1 test (SPA-based detection)
Format: biochemical
Details: [1,2-3H]-cortisone, NADPH, 37° C., 1 hour, read-out: IC50 (nM), biological activity
Description: First of all, 20 μl of the human 11β-HSD1 microsome fraction (0.2 μg of protein), prepared in 50 mM HEPES, 0.1% BSA (w/v), were applied to a plate with 384 wells. The test compounds (0.09 μl) were applied to the assay plate in 100% DMSO. The reaction was started by addition of 20 μl of [1,2-^3H]-cortisone (0.1 μCi/[…]) in assay buffer comprising 25 mM HEPES, 100 mM KCl, 5 mM NaCl, 2 mM MgCl2 and 0.25 mM NADPH. The plate was agitated at 37° C. for 1 hour. At the same time, a stop solution comprising 20 mg/ml SPA-PVT beads, 1.6 mg/ml monoclonal cortisol antibody and 0.01 mM SSR110887 (inhibitor from the Biovitrium patent) in 50 mM HEPES, 1 M NaCl and 1 M KCl was stirred at room temperature. To stop the reaction, 25 μl of the stop solution were added to each well. The plate was agitated gently at room temperature for 1 further hour and then centrifuged at 500 gav for 1 min, in order that the SPA beads could settle out. […] The comparative compound was glycyrrhetinic acid.
Protein and radioactive substrate were dispensed with a Biomek FX unit (Beckman Coulter) for handling liquids. The test compounds were added with a Cybi-Well equipped with a 90 n1 pin tool (CyBio).
Lit.: Solly S, Mundt S S, Zokian H J, Juy-Fang Ding G, Hermanowski-Vosatka A, Strulovici B and Zheng W. High-throughput screening of 11β-Hydroxysteroid dehydrogenase type 1 in scintillation proximity format.

Sequence of human 11β-HSD1 microsome fraction (P28845 whole entry): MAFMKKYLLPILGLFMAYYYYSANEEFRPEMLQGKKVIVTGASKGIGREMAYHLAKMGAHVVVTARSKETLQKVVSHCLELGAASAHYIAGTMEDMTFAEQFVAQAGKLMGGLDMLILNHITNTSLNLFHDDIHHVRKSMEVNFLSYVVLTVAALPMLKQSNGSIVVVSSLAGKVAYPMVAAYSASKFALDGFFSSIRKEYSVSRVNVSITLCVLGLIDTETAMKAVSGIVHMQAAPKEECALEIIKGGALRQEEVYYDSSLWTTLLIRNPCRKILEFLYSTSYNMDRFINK

| IC50 | Structure (SMILES) |
| --- | --- |
| 438 nM | CC(C)(C)C1OC(NC2CCCCC2)=NS(=O)(=O)C12CC2 (centres unmarked) [Example 5, (8-tert-Butyl-4,4-dioxo-7-oxa-4lambda6-thia-5-aza-spiro[2.5]oct-5-en-6-yl)-cyclohexyl-amine] |
| 598 nM | CC1OC(NC2CCCCC2)=NS(=O)(=O)C12CC2 (centres unmarked) [Example 6, Cyclohexyl-(8-methyl-4,4-dioxo-7-oxa-4lambda6-thia-5-aza-spiro[2.5]oct-5-en-6-yl)-amine] |

Second part, the compound before the results:

| Structure (SMILES) | IC50 |
| --- | --- |
| O=S1(=O)N=C(NC2CCCCC2)OC(c2ccccc2)C12CC2 (centres unmarked) [Example 1, Cyclohexyl-(4,4-dioxo-8-phenyl-7-oxa-4lambda6-thia-5-aza-spiro[2.5]oct-5-en-6-yl)-amine] | 355 nM |
| CC(C)C1OC(NC2CCCCC2)=NS(=O)(=O)C12CC2 (centres unmarked) [Example 3, Cyclohexyl-(8-isopropyl-4,4-dioxo-7-oxa-4lambda6-thia-5-aza-spiro[2.5]oct-5-en-6-yl)-amine] | 629 nM |
| CCCC1OC(NC2CCCCC2)=NS(=O)(=O)C12CC2 (centres unmarked) [Example 4, Cyclohexyl-(4,4-dioxo-8-propyl-7-oxa-4lambda6-thia-5-aza-spiro[2.5]oct-5-en-6-yl)-amine] | 518 nM |

— patent US8828994B2, “Di- and tri-substituted oxathiazine derivatives, method for the production thereof, use thereof as medicine and drug containing said derivatives and use thereof” (SANOFI, priority 2011, dated 2014)
